This test addresses T1, AM2 receptor (1321N1 cells transfected with CALCRL+RAMP3) (Homo sapiens, UniProt O60896+Q16602).
T1 construct: host or cells: 1321N1 cells
The test can be described thus: AM2 receptor inhibition, LANCE cAMP agonist-antagonist competition assay. Type of test: cell-based. To be noted: inhibition of AM induced cAMP activation, read-out: AM2 D2 protocol: pIC50 (converted). As for the experimental part:
Compounds were assessed for their ability to inhibit ligand-induced elevations of cAMP, using the Perkin Elmer LANCE cAMP assay using commercially-available cells expressing a specific receptor of interest using the following general procedure:
Compounds were prepared in dimethyl sulfoxide (DMSO—99.9% pure) (Sigma Aldrich, Cat #: D4540) added to powder stocks to produce a 20 mM solution (100% DMSO) that was sonicated at 37° C. for 10 minutes to fully dissolve the compounds. The 20 mM stocks were diluted further in DMSO to produce a 2 mM solution that was sonicated at 37° C. for 10 minutes. 2 mM stocks were dissolved in assay/stimulation buffer to produce a 400 μM solution that was sonicated at 37° C. for 10 minutes for all cAMP assays. All stocks were stored at −20° C. Then serial dilution (Dilution factor: 10) was performed to achieve the desire experimental concentrations.
Competition assays were performed according to the manufactures instructions using LANCE® TR-FRET cAMP assay kit (Perkin Elmer, Cat #: AD0264). Serial dilutions (3 μl/well) of the molecules were plated in a 384-well OptiPlate (Perkin Elmer, Cat #: 6007299) in duplicates. Appropriate controls (100% stimulation: Forskolin and 0% stimulation: Vehicle control) (6 μl/well) were included in each plate for data normalization. Following the compound addition, 6 μl of G-protein coupled receptor overexpressing cells/Alexa Fluor antibody solution (1:100 dilution) was added in each well at a desired density of 2500cells/well. The overexpressing cell lines were purchased from DiscoveRx, Birmingham, UK. After spinning the plate at 1000 rpm for 1 minute and vortexing briefly, the cells were pre-incubated with the compounds for 30 minutes at room temperature (covered). Then 3 μl of the equivalent peptide ligand (EC50 dose) was added to all the wells except vehicle and forskolin controls. The plate were then spun down at 1000 rpm for 1 minute and once finished they were vortexed briefly and covered. Cells were stimulated in the presence of the ligands for 15 minutes at room temperature. After stimulation 12 μl of detection mix (Europium-Chelate streptavidin/biotinylated cAMP tracer solution) was added to all wells and incubated for 60 minutes at room temperature. The plate was then read on the Enspire multimode Plate reader (Perkin Elmer), at; 320/340 nm excitation and 615/665 nm emission was recorded.
Assay/Stimulation Buffer (30 mL)—pH 7.4 • 28 mL Hank's Balanced salt solution (+MgCl2, +CaCl2)—(Thermo Fisher Cat #:14170112) • 150 μl HEPES (1M)—(Thermo Fisher Cat #:15630080) • 400 μl Stabilizer (DTPA) Purified BSA (7.5%)—(Perkin Elmer, Cat #: CR84-100)
The ability of a compound to inhibit the AM induced cAMP activation in AM2 receptor-expressing cells (1321N1 cells transfected with CALCRL+RAMP3, sourced from DiscoverX catalogue number 95-0169C6) was assessed using the protocol above.
T1 sequence (Q16602 23-461): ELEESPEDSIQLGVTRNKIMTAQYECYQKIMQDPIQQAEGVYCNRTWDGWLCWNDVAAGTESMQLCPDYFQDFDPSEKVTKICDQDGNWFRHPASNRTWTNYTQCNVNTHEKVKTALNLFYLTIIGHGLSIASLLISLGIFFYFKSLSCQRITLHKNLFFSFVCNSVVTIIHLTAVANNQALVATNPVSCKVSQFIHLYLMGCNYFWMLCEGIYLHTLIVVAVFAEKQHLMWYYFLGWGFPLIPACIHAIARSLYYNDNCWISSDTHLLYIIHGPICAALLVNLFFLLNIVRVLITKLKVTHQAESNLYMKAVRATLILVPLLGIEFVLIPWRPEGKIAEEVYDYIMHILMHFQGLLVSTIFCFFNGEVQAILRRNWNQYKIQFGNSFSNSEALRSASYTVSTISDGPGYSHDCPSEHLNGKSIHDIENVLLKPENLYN
T1 sequence (O60896 24-148): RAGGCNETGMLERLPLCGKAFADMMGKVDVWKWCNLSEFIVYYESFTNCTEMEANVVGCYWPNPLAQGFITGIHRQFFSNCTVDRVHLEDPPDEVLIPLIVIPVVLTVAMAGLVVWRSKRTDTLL
As for `CNCc1ccccc1CN(CC(=O)Nc1ccc2c(c1)C[C@@]1(C2)C(=O)Nc2ncccc21)C(=O)C1(C)CCN(C(=O)c2ncccn2)CC1` [Example 18, (R)-4-Methyl-N-(2-((methylamino)methyl)benzyl)-N-(2-oxo-2-((2′-oxo-1,1′,2′,3-tetrahydrospiro[indene-2,3′-pyrrolo[2,3-b]pyridin]-5-yl)amino)ethyl)-1-(pyrimidine-2-carbonyl)piperidine-4-carboxamide], the IC50 is 7.41 nM.

In the case of `CNCc1ccccc1CN(CC(=O)Nc1ccc2c(c1)C[C@@]1(C2)C(=O)Nc2ncccc21)C(=O)C1(C)CCN(C(=O)c2cnccn2)CC1` [Example 19, (R)-4-Methyl-N-(2-((methylamino)methyl)benzyl)-N-(2-oxo-2-((2′-oxo-1,1′,2′,3-tetrahydrospiro[indene-2,3′-pyrrolo[2,3-b]pyridin]-5-yl)amino)ethyl)-1-(pyrazine-2-carbonyl)piperidine-4-carboxamide], the IC50 was 4.47 nM.

On to `CNCc1ccccc1CN(CC(=O)Nc1ccc2c(c1)CC1(C2)C(=O)Nc2ncccc21)C(=O)C1(C)CCN(C(=O)C2CC2)CC1` (stereo not drawn) [Example 20, 1-(Cyclopropanecarbonyl)-4-methyl-N-(2-((methylamino)methyl)benzyl)-N-(2-oxo-2-((2′-oxo-1,1′,2′,3-tetrahydrospiro[indene-2,3′-pyrrolo[2,3-b]pyridin]-5-yl)amino)ethyl)piperidine-4-carboxamide], for which the IC50 is 4.27 nM.

With `CNCc1ccccc1CN(CC(=O)Nc1ccc2c(c1)CC1(C2)C(=O)Nc2ncccc21)C(=O)C1(C)CCN(C(=O)COC)CC1` (stereo not drawn) [Example 21, 1-(2-Methoxyacetyl)-4-methyl-N-(2-((methylamino)methyl)benzyl)-N-(2-oxo-2-((2′-oxo-1,1′,2′,3-tetrahydrospiro[indene-2,3′-pyrrolo[2,3-b]pyridin]-5-yl)amino)ethyl)piperidine-4-carboxamide], the IC50 was 1.51 nM.

For `CNCc1ccccc1CN(CC(=O)Nc1ccc2c(c1)CC1(C2)C(=O)Nc2ncccc21)C(=O)C1(C)CCN(C(=O)CN)CC1` (stereo not drawn) [Example 22, 1-(2-Aminoacetyl)-4-methyl-N-(2-((methylamino)methyl)benzyl)-N-(2-oxo-2-((2′-oxo-1,1′,2′,3-tetrahydrospiro[indene-2,3′-pyrrolo[2,3-b]pyridin]-5-yl)amino)ethyl)piperidine-4-carboxamide], the IC50 is 0.631 nM.

For `CNCc1ccccc1CN(CC(=O)Nc1ccc2c(c1)C[C@@]1(C2)C(=O)Nc2ncccc21)C(=O)C1(C)CCN(C(=O)C(C)NC)CC1` (stereo partly drawn) [Example 23, 4-Methyl-N-(2-((methylamino)methyl)benzyl)-1-(2-(methylamino)propanoyl)-N-(2-oxo-2-(((R)-2′-oxo-1,1′,2′,3-tetrahydrospiro[indene-2,3′-pyrrolo[2,3-b]pyridin]-5-yl)amino)ethyl)piperidine-4-carboxamide], the IC50 is 1.38 nM.

For `CNCc1ccccc1CN(CC(=O)Nc1ccc2c(c1)C[C@@]1(C2)C(=O)Nc2ncccc21)C(=O)C1(C)CCN(C(=O)c2ccncn2)CC1` [Example 24, (R)-4-Methyl-N-(2-((methylamino)methyl)benzyl)-N-(2-oxo-2-((2′-oxo-1,1′,2′,3-tetrahydrospiro[indene-2,3′-pyrrolo[2,3-b]pyridin]-5-yl)amino)ethyl)-1-(pyrimidine-4-carbonyl) piperidine-4-carboxamide], the IC50 was 2.95 nM.

Turning to `CNCc1ccccc1CN(CC(=O)Nc1ccc2c(c1)C[C@@]1(C2)C(=O)Nc2ncccc21)C(=O)C1(C)CCN(C(=O)c2ccn[nH]2)CC1` [Example 25, (R)-4-Methyl-N-(2-((methylamino)methyl)benzyl)-N-(2-oxo-2-((2′-oxo-1,1′,2′,3-tetrahydrospiro[indene-2,3′-pyrrolo[2,3-b]pyridin]-5-yl)amino)ethyl)-1-(1H-pyrazole-5-carbonyl) piperidine-4-carboxamide], the IC50 was 2.14 nM.

Regarding `CNCc1ccccc1CN(CC(=O)Nc1ccc2c(c1)C[C@@]1(C2)C(=O)Nc2ncccc21)C(=O)C1(C)CCN(C(=O)c2cccnn2)CC1` [Example 26, (R)-4-Methyl-N-(2-((methylamino)methyl)benzyl)-N-(2-oxo-2-((2′-oxo-1,1′,2′,3-tetrahydrospiro[indene-2,3′-pyrrolo[2,3-b]pyridin]-5-yl)amino)ethyl)-1-(pyridazine-3-carbonyl) piperidine-4-carboxamide], the IC50 is 4.57 nM.

Take `CNCc1ccccc1CN(CC(=O)Nc1ccc2c(c1)C[C@@]1(C2)C(=O)Nc2ncccc21)C(=O)C1(C)CCN(C(=O)CC2CC2)CC1` [Example 27, (R)-1-(2-Cyclopropylacetyl)-4-methyl-N-(2-((methylamino)methyl)benzyl)-N-(2-oxo-2-((2′-oxo-1,1′,2′,3-tetrahydrospiro[indene-2,3′-pyrrolo[2,3-b]pyridin]-5-yl)amino)ethyl)piperidine-4-carboxamide]: the IC50 was 95.5 nM.

On to `CNCc1ccccc1CN(CC(=O)Nc1ccc2c(c1)C[C@@]1(C2)C(=O)Nc2ncccc21)C(=O)C1(C)CCN(C(=O)CN)CC1` [Example 28, (R)-1-(2-Aminoacetyl)-4-methyl-N-(2-((methylamino)methyl)benzyl)-N-(2-oxo-2-((2′-oxo-1,1′,2′,3-tetrahydrospiro[indene-2,3′-pyrrolo[2,3-b]pyridin]-5-yl)amino)ethyl)piperidine-4-carboxamide], for which the IC50 was 3.55 nM.

Regarding `CNCc1ccccc1CN(CC(=O)Nc1ccc2c(c1)C[C@@]1(C2)C(=O)Nc2ncccc21)C(=O)C1(C)CCN(C(=O)c2ccc(N)cn2)CC1` [Example 29, (R)-1-(5-Aminopicolinoyl)-4-methyl-N-(2-((methylamino)methyl)benzyl)-N-(2-oxo-2-((2′-oxo-1,1′,2′,3-tetrahydrospiro[indene-2,3′-pyrrolo[2,3-b]pyridin]-5-yl)amino)ethyl)piperidine-4-carboxamide], the IC50 is 17.8 nM.

For the compound `CNCc1ccccc1CN(CC(=O)Nc1ccc2c(c1)CC1(C2)C(=O)Nc2ncccc21)C(=O)C1(C)CCN(C(=O)CN2CCNCC2)CC1` (stereo not drawn) [Example 30, 4-Methyl-N-(2-((methylamino)methyl)benzyl)-N-(2-oxo-2-((2′-oxo-1,1′,2′,3-tetrahydrospiro[indene-2,3′-pyrrolo[2,3-b]pyridin]-5-yl)amino)ethyl)-1-(2-(piperazin-1-yl)acetyl)piperidine-4-carboxamide], the IC50 is 0.589 nM.

Regarding `CNCc1ccccc1CN(CC(=O)Nc1ccc2c(c1)CC1(C2)C(=O)Nc2ncccc21)C(=O)C1(C)CCN(C(=O)CCN(C)C)CC1` (stereo not drawn) [Example 31], the IC50 was 1.15 nM.

Take `CNCc1ccccc1CN(CC(=O)Nc1ccc2c(c1)C[C@@]1(C2)C(=O)Nc2ncccc21)C(=O)C1(C)CCN(C(=O)CN2CCN(C(C)=O)CC2)CC1` [Example 32, (R)-1-(2-(4-Acetylpiperazin-1-yl)acetyl)-4-methyl-N-(2-((methylamino)methyl)benzyl)-N-(2-oxo-2-((2′-oxo-1,1′,2′,3-tetrahydrospiro[indene-2,3′-pyrrolo[2,3-b]pyridin]-5-yl)amino)ethyl)piperidine-4-carboxamide]: the IC50 was 2.34 nM.

The values are drawn from patent publication US20230036854A1, “HETEROCYCLIC SPIRO-COMPOUNDS AS AM2 RECEPTOR INHIBITORS” (THE UNIVERSITY OF SHEFFIELD, priority 2018, published 2023).
